In ChEMBL document CHEMBL1240453, “Substituted dihydronaphthalenes as efflux pump inhibitors of Staphylococcus aureus” (2010):
Converted amounts (≈) assume the structure as drawn.

Legend:
[1] = target: T1, Quinolone resistance protein NorA (Staphylococcus aureus) (UniProt P0A0J7); conditions: 1199B
T1 sequence (whole entry): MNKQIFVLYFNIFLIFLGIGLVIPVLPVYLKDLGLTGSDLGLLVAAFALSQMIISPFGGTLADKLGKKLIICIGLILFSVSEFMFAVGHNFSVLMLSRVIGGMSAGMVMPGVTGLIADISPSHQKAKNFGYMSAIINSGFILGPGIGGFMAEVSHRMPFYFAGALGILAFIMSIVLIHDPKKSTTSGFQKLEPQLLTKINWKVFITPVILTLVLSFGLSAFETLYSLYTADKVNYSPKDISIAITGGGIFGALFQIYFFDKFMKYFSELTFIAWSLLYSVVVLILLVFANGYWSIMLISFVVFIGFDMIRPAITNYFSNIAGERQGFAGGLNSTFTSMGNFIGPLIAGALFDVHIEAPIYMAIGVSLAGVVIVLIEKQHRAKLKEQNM
Description: Inhibition of Staphylococcus aureus 1199B norA efflux pump by spectrophotometry

Staphylococcus aureus [2] = test: microbe, parasite or virus in culture; conditions: 1199B, 24 h
Description: Antimicrobial activity against Staphylococcus aureus 1199B after 24 hrs

Staphylococcus aureus [3] = test: microbe, parasite or virus in culture; conditions: Staphylococcus aureus, 1199, 24 h
Description: Antimicrobial activity against Staphylococcus aureus 1199 after 24 hrs

Question: Which MEC [1] does the source give for `COC(=O)[C@H]1[C@H]2C[C@@H]3c4[nH]c5cc(OC)ccc5c4CCN3C[C@H]2C[C@@H](OC(=O)c2cc(OC)c(OC)c(OC)c2)[C@@H]1OC` here?
Answer: Its MEC is 25 µg/mL.

Question: Which MIC (Staphylococcus aureus [2]) does the source give for `O=C(O)c1cn(C2CC2)c2cc(N3CCNCC3)c(F)cc2c1=O` [CIPROFLOXACIN] here?
Answer: Its MIC is 8 µg/mL (≈ 24.1 µM).

Question: What about the MIC (Staphylococcus aureus [3]) of the same molecule?
Answer: The MIC was 0.25 µg/mL (≈ 0.754 µM).
